Measurements as given in patent US4771041A, “Method for combating virus infection” (priority 1976, dated 1988).

Columns and labels:
[1] = target: type A influenza virion-associated RNA polymerase (Influenza A virus (A/nt/60/1968(H3N2)), UniProt P03432); assay: Inhibition of type A influenza virion-associated RNA polymerase; format: biochemical, Influenza A2 Aichi virus; conditions: mean of two experiments
Procedure: (§1) Polymerases, nucleic acid template nucleoside triphosphates, of which guanosine triphosphate is tritium-labelled, salt and buffer are mixed at 0° C. in a total volume of 125 μl (for herpes DNA polymerase, see F. below). The concentrations of the nucleoside triphosphates UTP (uridine triphosphate), CTP (cytidinetriphosphate), GTP (guanosinetriphosphate) and ATP (adenosinetriphosphate) were generall 400, 400, 400, and 2000 μM, respectively. The test compound is also added in various concentrations to the mixture obtained. A standard mixture without test compound is also prepared using the same amounts of the ingredients. The enzyme reaction, i.e. synthesis of nucleic acid, is started by incubating the mixture at 37° C. For influenza RNA polymerases the temperature is 33° C. The reaction is allowed to proceed for 60 minutes in the assay of influenza and Micrococcus polymerases. For E.coli DNA dependent RNA polymerase the time is 20 min. and for herpes DNA polymerase 30 minutes. The incubation time for calf thymus polymerases is 10 minutes. The incorporation of labelled monomer into trichloroacetic acid insoluble nucleic acid product was measured in the following way. Before and after the incubation period 50 μl are withdrawn from the mixture and applied to filter discs. These are put in 5% trichloroacetic acid solution and washed several times. After drying the discs are measured for radioactivity in a liquid scintillation counter. The difference in radioactivity between samples with and without added compound is used to calculate the inhibition of the polymerase activity. The inhibition is expressed as percentage inhibition using the radioactivity of the standard sample as basis.
A. Inhibition by phosphonoformic acid of type A influenza virion associated RNA polymerase
Influenza A2 Aichi virus was purified according to the method of Pons and Hirst, Virology 34 385 (1968). The assay mixture is described by Bishop, Obijeski and Simpson, J. Virol. 8 66 (1971).

[2] = tested on: type B influenza virion-associated RNA polymerase; assay: Inhibition of type B influenza virion-associated RNA polymerase; format: biochemical, influenza B Hongkong 8/73; conditions: 500 μM; GTP 135 μM
Procedure: as §1, with “For E.coli DNA dependent RNA polymerase the time is 20 min. and for herpes DNA polymerase 30 minutes. The incubation time for calf thymus polymerases is 10 minutes.” left out, “Before and after the incubation period 50 μl are withdrawn from the mixture and applied to filter discs. These are put in 5% trichloroacetic acid solution and washed several times.” left out, “basis. […]” for “basis.”

[3] = target: calf thymus DNA dependent RNA polymerase fraction B (DCB) (Bos taurus, UniProt A5PJW8+G3MZY8); assay: Inhibition of calf thymus DNA dependent RNA polymerase fraction B; format: biochemical; conditions: read-out: Inhibition % DCB
Procedure: as §1, with “For E.coli DNA dependent RNA polymerase the time is 20 min. and for herpes DNA polymerase 30 minutes. The incubation time for calf thymus polymerases is 10 minutes.” left out, “Before and after the incubation period 50 μl are withdrawn from the mixture and applied to filter discs. These are put in 5% trichloroacetic acid solution and washed several times.” left out, “basis. […]” for “basis.”

[4] = target: calf thymus DNA dependent RNA polymerase fraction A (DCA) (Bos taurus, UniProt A6QLS0+E1BIX2); assay: Inhibition of calf thymus DNA dependent RNA polymerase fraction A; format: biochemical
Procedure: as §1, with “For E.coli DNA dependent RNA polymerase the time is 20 min. and for herpes DNA polymerase 30 minutes. The incubation time for calf thymus polymerases is 10 minutes.” left out, “Before and after the incubation period 50 μl are withdrawn from the mixture and applied to filter discs. These are put in 5% trichloroacetic acid solution and washed several times.” left out, “basis. […]” for “basis.”

[5] = target: T1, reverse transcriptase from BLV (Bovine leukemia virus, UniProt P03361); assay: Cell-free reverse transcriptase inhibition, BLV; format: biochemical; conditions: template/primer (rA)n.(dT)10, read-out: Percent inhibition
T1 construct: Reverse transcriptase from various retroviruses have been tested in cell-free assays; made in house
Procedure: Reverse transcriptase from various retroviruses have been tested in cell-free assays for inhibition by phosphonoformic acid and phosphonoacetic acid. The assay conditions have been described by Collaborative Research, Inc, 1365 Main Street, Waltham, Mass., USA "Assay kit for mammalian viral reverse transcriptase". BLV and VV were prepared in this laboratory and all other viruses and viral enzyme were obtained from Dr. K Nilsson, Department of Pathology, University of Uppsala and from Boehringer Mannheim, Germany. Phosphonoformic acid (PFA) and phosphonoacetic acid (PAA) were added at pH 7.2 to the reaction mixtures at the start of the reaction.
Rauscher murine leukemia virus; RMuLV, visna virus; VV, avian myeloblastosis virus; AMV, bovine leukemia virus; BLV, baboon endogenous virus; BaEV, simian sarcoma virus; SSV.

[6] = Toxicity controls with substance in uninfected mice; format: in vivo
Excerpt: Toxicity controls with substance were given to uninfected animals.

[7] = target: HTLV-III reverse transcriptase (Human immunodeficiency virus type 1 group M subtype B, UniProt P03366); assay: HTLV-III reverse transcriptase assay; format: biochemical
Procedure: The purified enzyme was stored in 50 mM Tris-HCl (pH 7.5), 1 mM dithiothreitol (DTT), 0.01% Triton X-100 and 20% glycerol. Reverse transcriptase assays were carried out in a reaction mixture (50 μl) containing 50 mM Tris-HCl (pH 7.5), 5 mM DTT, 100 mM potassium chloride, 0.01% Triton X-100 or NP40, 10 μg/ml (dT)15.(A)n as template primer and /^3 H/deoxythymidine triphosphate (/^3 H/-dTTP). The reaction mixture was incubated for 1 hour at 37° and the reaction was stopped by the addition of 50 μg of yeast tRNA and 2 ml of 10% solution of trichloroacetic acid (TCA) containing 1 mM sodium pyrophosphate. The samples were filtered on millipore filters (0.45 μm), washed first with 5% TCA solution (5 times) and then with 2 ml of 70% ethanol. The filters were dried under a heat lamp, scintillation fluid was added and the radioactivity counted in a β-scintillation counter.
The effect of foscarnet on purified HTLV-III reverse transcriptase (RT) was assayed as a function of drug concentration.

HTLV-III = HTLV-III replication in H9 cells; format: cell-based; conditions: Human immunodeficiency virus 1, 144 h
Procedure: H9 cells constitute a human cell line that can be chronically infected with HTLV-III virus. (Science 1984; 224: 497-500). H9 cells were treated with polybrene (2 μg/ml) for 30 min. at 37° C., washed free of polybrene and infected with 2×10^8 HTLV-III virus particles per 4×10^5 H9 cells. […] The cultures were analyzed for HTLV-III reverse transcriptase activity as described above.

type A influenza virion-associated RNA polymerase (Influenza A virus (A/nt/60/1968(H3N2)), UniProt P03432), sequence (P03432 whole entry, looked up): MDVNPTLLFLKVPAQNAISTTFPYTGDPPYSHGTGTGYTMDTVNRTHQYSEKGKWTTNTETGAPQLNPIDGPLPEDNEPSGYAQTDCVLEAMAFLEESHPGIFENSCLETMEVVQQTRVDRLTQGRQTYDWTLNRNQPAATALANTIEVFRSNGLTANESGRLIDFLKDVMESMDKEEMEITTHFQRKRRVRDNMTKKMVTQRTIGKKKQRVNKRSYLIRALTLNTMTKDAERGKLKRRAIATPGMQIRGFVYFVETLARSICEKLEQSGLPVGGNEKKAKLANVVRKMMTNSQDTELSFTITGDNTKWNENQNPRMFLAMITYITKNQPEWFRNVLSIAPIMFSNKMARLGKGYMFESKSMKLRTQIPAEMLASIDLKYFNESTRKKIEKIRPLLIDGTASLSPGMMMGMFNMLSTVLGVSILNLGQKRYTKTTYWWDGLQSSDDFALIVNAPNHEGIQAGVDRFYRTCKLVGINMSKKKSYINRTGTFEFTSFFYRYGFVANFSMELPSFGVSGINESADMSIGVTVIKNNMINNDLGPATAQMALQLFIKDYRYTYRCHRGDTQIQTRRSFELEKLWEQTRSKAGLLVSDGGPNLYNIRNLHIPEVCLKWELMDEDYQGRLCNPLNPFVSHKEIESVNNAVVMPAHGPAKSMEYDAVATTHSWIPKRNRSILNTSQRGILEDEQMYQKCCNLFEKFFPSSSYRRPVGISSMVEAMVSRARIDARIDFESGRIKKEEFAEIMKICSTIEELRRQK
T1 sequence (P03361 546-1120): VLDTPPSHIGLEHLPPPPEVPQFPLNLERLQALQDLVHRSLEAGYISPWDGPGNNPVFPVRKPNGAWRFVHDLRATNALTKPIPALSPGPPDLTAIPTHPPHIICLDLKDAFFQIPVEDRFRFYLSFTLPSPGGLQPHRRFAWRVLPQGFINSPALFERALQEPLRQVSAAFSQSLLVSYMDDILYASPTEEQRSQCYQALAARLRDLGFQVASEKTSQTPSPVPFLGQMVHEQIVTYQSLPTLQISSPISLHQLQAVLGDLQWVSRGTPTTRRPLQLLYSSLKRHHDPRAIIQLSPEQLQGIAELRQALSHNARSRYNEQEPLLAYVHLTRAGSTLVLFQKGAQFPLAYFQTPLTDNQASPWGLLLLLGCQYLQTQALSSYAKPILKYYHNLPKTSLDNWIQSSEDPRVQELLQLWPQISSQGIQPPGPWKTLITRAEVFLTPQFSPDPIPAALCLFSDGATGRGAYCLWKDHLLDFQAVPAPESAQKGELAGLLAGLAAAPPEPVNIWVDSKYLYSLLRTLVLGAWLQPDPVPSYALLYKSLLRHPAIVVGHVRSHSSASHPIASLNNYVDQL

Q: What does the source list for `O=C(O)P(=O)(O)O` [phosphonoformic acid]?
A: inhibition at 0.1 µM ([1]; 0.1 μM): 21%; inhibition at 0.5 µM ([1]; 0.50 μM): > 50%; inhibition at 1 µM ([1]; 1.00 μM): 79%; inhibition at 10 µM ([1]; 10 μM): 91%; inhibition at 100 µM ([1]; 100 μM): 95%; inhibition at 500 µM ([1]; 500 μM): 93%; Inhibition [2]: 100%; inhibition at 500 µM [3]: 0%; inhibition at 500 µM [4]: -3%; inhibition at 100 µM ([5]; 100 μM): 88%; inhibition at 500 µM ([5]; 500 μM): 93%; deaths in substance control group ([6]; 0.5% in the drinking water, 10 mice): No mice died; deaths in toxicity control group ([6]; uninfected mice, 100 mg/kg/day, 10 animals): No mice died; IC50 ([7]; purified enzyme from different virus isolates, (dT)15.(A)n template primer, read-out: concentration causing 50% inhibition of HTLV-III reverse transcriptase activity): 0.1 to 2 µM; type of inhibition of reverse transcriptase ([7]; with respect to substrate and template): noncompetitive with respect to substrate and uncompetitive with respect to template; inhibition at 300 µM (HTLV-III; 300 μM, after six days of incubation): > 95%; IC50 (HTLV-III; after 6 days of incubation, read-out: concentration giving 50% inhibition of HTLV-III replication): 50 µM
